The subject of assay [1] is Peroxiredoxin-4 (PRDX4_HUMAN). Kind of assay: LC–MS proteome analysis, PRDX4. The class given is cell-based, Homo sapiens. The conditions noted are these: for Protein Intensity, % (PRDX4): IC50 concentration, % of control. How it is done:
(§1) Enzymes involved in oxidoreductive potential were analyzed in the cell lysates obtained after treatment cells with selected conjugates for 24 h. Cells were washed with phosphate-buffered saline (PBS) and harvested, then centrifuged at 1000× g for 10 min. Then, lysis buffer (containing protease inhibitor, 1% RIPA Lysis and Extraction Buffer (ThermoFisher)) and cold PBS were added, and samples were sonicated three times in ice bath. Next, the cell lysates were centrifuged at 14,000× g at 4 °C for 15 min, and then supernatants were stored at […] before use. Protein concentration was measured by the Bradford method.
(§2) Normalized protein concentrations (5 µg) from cell lysate were precipitated by ice cold (–20 °C) acetonitrile (ACN, Merck, in ratio 1:4). Then, samples were centrifuged (–9 °C, 30 min., 18,000× g), the supernatant was discarded and ACN excess was evaporated using a vacuum centrifuge (5 min., room temp.). Protein pellet was dissolved in 40 mM ammonium bicarbonate. An amount of 500 mM dithiothreitol (DTT, with final concentration 20 mM) and 1 M iodoacetamide (IAA, with final concentration 40 mM) were used for reduction and alkylation processes. After 16 h of incubation in 37 °C with Trypsin Gold (Promega), digested protein samples were diluted with 0.1% formic acid (ThermoFisher) and centrifuged (+2 °C, 30 min, 18,000× g).
(§3) LC–MS analysis was carried out with the use of nanoUHPLC (nanoElute, Bruker) coupled by CaptiveSpray (Bruker) to ESI-Q-TOF mass spectrometer (Compact, Bruker). Two-column separation method was used, i.e., pre-column (300 µm × 5 mm, C18 PepMap 100, 5 µm, 100Å, Thermo Scientific) and Aurora separation column with CSI fitting (75 µm × 250 mm, C18 1.6 µm) in gradient 2% B to 35% B in 90 min with the 300 nL/min flow rate. Mobile phases (A) 0.1% formic acid in water and (B) 0.1% formic acid in ACN were used.
(§4) Sample ionizations were performed at a gas flow of 3.0 L/min, temperature of 150 °C and voltage of the capillary at 1600 V. The quadrupole energy was fixed to 5.0 eV and collision chamber energy 7.0 eV, with an ion transfer time of 90 µs. The ions were analyzed in the positive polarity mode in the range 150–2200 m/z, with the acquisition frequency of the 1 Hz spectrum, as well as with the autoMS/MS system.
(§5) The collected spectra were analyzed and calibrated using DataAnalysis software (Bruker) and then identified in ProteinScape (Bruker) by the MASCOT server. Protein identification was conducted using the online SwissProt and NCBIprot databases, and their references and biological significance were identified using Reactome.org, String.org and KEGG.

Assay [2] concerns Thioredoxin-dependent peroxide reductase, mitochondrial (PRDX3_HUMAN). Nature of the assay: LC–MS proteome analysis, PRDX3. Format: cell-based, Homo sapiens. The note with it: IC50 concentration, % of control. How it is done:
as §1, §2, §3, §4, §5

The test system of assay [3] is interleukin-6 (IL-6). Nature of the assay: IL-6 level assay (ELISA). Format: cell-based, human. The note with it: 72 h. How it is done:
IL-6 concentration at all studied cancer cells and normal HaCaT cell lines was measured by ELISA kit (Diaclon SAS Besancon Cedex, France). […] IL-6 in cell culture supernatant was measured using enzyme-linked immunosorbent assay in accordance with the manufacturer’s protocol.

The subject of assay [4] is Peroxiredoxin-1 (PRDX1_HUMAN). Kind of assay: LC–MS proteome analysis, PRDX1. The class given is cell-based, Homo sapiens. The conditions noted are these: IC50 concentration, % of control. How it is done: as §1, §2, §3, §4, §5
Assay [5] relates to PC3 cells. Nature of the assay: Annexin V-FITC/PI flow cytometry, PC3. Format: cell-based, human. The conditions noted are these: PC3, IC50 dose, 72 h. How it is done: The cells were cultured and harvested under the conditions described in the cell culture section. […] The effect of these compounds on the process of early and late apoptosis and necrosis was determined, as described previously, by dual staining with annexin V-FITC and propidium iodide according to manufacturer’s protocol (Becton Dickinson). The cells that were annexin V-FITC positive and PI-negative were identified as early apoptotic and annexin V-FITC and PI-positive as late apoptotic or necrotic.

The subject of assay [6] is Peroxiredoxin-2 (PRDX2_HUMAN). Kind of assay: LC–MS proteome analysis, PRDX2. Format: cell-based, Homo sapiens. The note with it: IC50 concentration, % of control. How it is done: as §1, §2, §3, §4, §5
Assay [7] has as its system Candida species. Kind of assay: MIC, Candida species. The class given is cell-based. The note with it: studied Candida species. How it is done:
(§6) The antimicrobial activity of the compounds was tested on Gram-positive bacteria (Staphylococcus aureus NCTC 4163, Staphylococcus aureus ATCC 25923, Staphylococcus aureus ATCC 6538, Staphylococcus aureus ATCC 29213, Staphylococcus epidermidis ATCC 12228, Staphylococcus epidermidis ATCC 35984), Gram-negative rods (Escherichia coli ATCC 10538, Escherichia coli ATCC 25922, Pseudomonas aeruginosa ATCC 15442, Pseudomonas aeruginosa ATCC 27863) and yeasts (Candida albicans ATCC 10231, Candida albicans ATCC 90028, Candida parapsilosis ATCC 22019). Hospital methicillin-resistant strains of Staphylococcus aureus and Staphylococcus epidermidis were obtained from the collection of the Department of Pharmaceutical Microbiology, Medical University of Warsaw, Poland.
(§7) Antifungal activities were assessed using Mueller–Hinton agar + 2% glucose and 0.5 µg/mL methylene blue dye medium. Sterile filter paper discs (9 mm diameter, Whatman Number 3 chromatography paper) were dripped with tested compound solutions (in dimethylsulfoxide, DMSO) to load 400 μg of a given compound per disc. Dry discs were placed on the surface of appropriate agar medium. The results (diameter of the growth inhibition zone) were read after 18 h of incubation at 35 °C. Minimal inhibitory concentration (MIC) was tested by the twofold serial microdilution method (in 96-well microtiter plates) using Mueller–Hinton broth medium (Beckton Dickinson) for bacteria or RPMI-1640 medium for Candida species, according to CLSI guidelines. The stock solution of tested agent was prepared in DMSO and diluted in sterile water. […] The final inoculum of all studied microorganisms was 10^5 CFU/ mL^−1 (colony forming units per ml). Minimal inhibitory concentrations (the lowest concentration of a tested agent that prevents visible growth of a microorganism) were read after 18 h (bacteria) or 24 h (yeasts) of incubation at 35 °C.

In assay [8] the test system is standard staphylococci. Kind of assay: MIC, standard staphylococci. The conditions noted are these: standard staphylococci / S. aureus isolates. The class given is cell-based, Staphylococcus. How it is done: as §6, §7
Assay [9] concerns detoxifying and ROS-scavenging enzymes (GST, GR, SOD, PRDX). Kind of assay: LC–MS proteome analysis, all 12 tested enzymes (text summaries). The class given is cell-based, human. The note with it: PC3, IC50 concentration, span over enzymes. How it is done:
as §1, §2
LC–MS analysis was carried out with the use of nanoUHPLC (nanoElute, Bruker) coupled by CaptiveSpray (Bruker) to ESI-Q-TOF mass spectrometer (Compact, Bruker). […]
as §4
The collected spectra were analyzed and calibrated using DataAnalysis software (Bruker) and then identified in ProteinScape (Bruker) by the MASCOT server. […]

Structures are written as SMILES. “And” between values parts separate entries of the source, which are not always exact repeats. Equal entries are not always repeated. Some results are limits rather than exact numbers.

For `O=[N+]([O-])c1cc([N+]2=C(Nc3ccccc3Br)[S][Cu-2]23[S]C(Nc2ccccc2Br)=[N+]3c2ccc(Cl)c([N+](=O)[O-])c2)ccc1Cl` [Compound 1, Copper (II) complex with 1-(2-bromophenyl)-3-(4-chloro-3-nitrophenyl)thiourea], the “Protein Intensity, % (PRDX4)” value in assay [1] (PC3, 24 h) was 72.6%; in assay [1] (SW480, 24 h) it was 67.6%; in assay [1] (SW620, 24 h), 79.4%. Also, the “Protein Intensity, % (PRDX3)” value in assay [2] (PC3, 24 h) was 69.5%; in assay [2] (SW480, 24 h) it was 95.2%; in [2] (SW620, 24 h) it was 69.9%. For the same compound, the “reduction of IL-6 secretion, times” value in [3] (PC3, IC50 dose) turned out to be 1.5 times. Moreover, the “reduction of IL-6 level, times” value in assay [3] (SW480, IC50 dose, vs control) is 1.9 times. Moreover, in assay [3] (SW620, IC50 dose), the “reduction of IL-6 concentration, times” value was 2.4 times. The “Protein Intensity, % (PRDX1)” value in assay [4] (PC3, 24 h) was determined as 73.9%; in [4] (SW480, 24 h), 95.9%; in assay [4] (SW620, 24 h), 96.1%. In addition, the “early apoptosis, % of cells” value in assay [5] is on record as “one third”. The “Protein Intensity, % (PRDX2)” value in [6] (PC3, 24 h) was 42.3%; in [6] (SW480, 24 h) it was 95.5%; in assay [6] (SW620, 24 h), 92.1%.
As usually defined, the MIC is the least concentration at which growth counts as inhibited. A lower MIC goes with inhibition by little substance. Consider `O=[N+]([O-])c1cc([N+]2=C(Nc3cccc(Br)c3)[S][Cu-2]23[S]C(Nc2cccc(Br)c2)=[N+]3c2ccc(Cl)c([N+](=O)[O-])c2)ccc1Cl` [Compound 2, Copper (II) complex with 1-(3-bromophenyl)-3-(4-chloro-3-nitrophenyl)thiourea], for which the growth inhibitory dose in assay [7] is reported as 64 µg/mL. The compound also showed an MIC in assay [8] of 16 to 32 µg/mL.
For the compound `O=[N+]([O-])c1cc([N+]2=C(Nc3ccc(F)c(Cl)c3)[S][Cu-2]23[S]C(Nc2ccc(F)c(Cl)c2)=[N+]3c2ccc(Cl)c([N+](=O)[O-])c2)ccc1Cl` [Compound 4, Copper (II) complex with 1-(3-chloro-4-fluorophenyl)-3-(4-chloro-3-nitrophenyl)thiourea], in assay [8], the MIC amounted to 4 µg/mL.
Turning to `O=[N+]([O-])c1cc([N+]2=C(Nc3ccc(Cl)c(Cl)c3)[S][Cu-2]23[S]C(Nc2ccc(Cl)c(Cl)c2)=[N+]3c2ccc(Cl)c([N+](=O)[O-])c2)ccc1Cl` [Compound 5, Copper (II) complex with 1-(4-chloro-3-nitrophenyl)-3-(3,4-dichlorophenyl)thiourea], in assay [8], the minimal inhibitory concentration (MIC) was 16 to 32 µg/mL and 32 µg/mL.
Compound `O=[N+]([O-])c1cc(NC2=[N+](c3ccc(Cl)c([N+](=O)[O-])c3)[Cu-2]3([S]2)[S]C(Nc2ccc(Cl)c([N+](=O)[O-])c2)=[N+]3c2ccc(Cl)c([N+](=O)[O-])c2)ccc1Cl` [Compound 6, Copper (II) complex with 1,3-bis(4-chloro-3-nitrophenyl)thiourea] gave a growth inhibitory dose in assay [7] of 64 µg/mL.
For the compound `O=[N+]([O-])c1cc([N+]2=C(Nc3ccccc3F)[S][Cu-2]23[S]C(Nc2ccccc2F)=[N+]3c2ccc(Cl)c([N+](=O)[O-])c2)ccc1Cl` [Compound 7, Copper (II) complex with 1-(2-fluorophenyl)-3-(4-chloro-3-nitrophenyl)thiourea], the “Protein Intensity, % (PRDX4)” value turned out to be 35.7% in [1] (PC3, 24 h); 58.3% in [1] (SW480, 24 h); 73.0% in assay [1] (SW620, 24 h). For the same compound, the “reduction of PRDX4 intensity” value in assay [1] (SW480, IC50 concentration) worked out at 41.7%. For the same compound, the “Protein Intensity, % (PRDX3)” value is reported as 12.4% in assay [2] (PC3, 24 h); 90.4% in assay [2] (SW480, 24 h); 61.2% in assay [2] (SW620, 24 h). Besides, the “decrease of IL-6 level” value in assay [3] (SW480, IC50 dose, vs control) is on record as no more than 30%. In assay [9], the “reduction of intensity of the 12 tested enzymes” value is listed as 20.8-87.6%. For the same compound, the “Protein Intensity, % (PRDX1)” value turned out to be 46.5% in [4] (PC3, 24 h); 71.6% in [4] (SW480, 24 h); 83.2% in assay [4] (SW620, 24 h). In addition, the “early apoptosis, % of cells” value in assay [5] is “one third”. The MIC in assay [8] fell in the range of 16 to 32 µg/mL. In addition, the “Protein Intensity, % (PRDX2)” value came out at 32.2% in assay [6] (PC3, 24 h); 69.4% in assay [6] (SW480, 24 h); 58.6% in [6] (SW620, 24 h).

These data come from publication PMC8584173, “The Cytotoxic Effect of Copper (II) Complexes with Halogenated 1,3-Disubstituted Arylthioureas on Cancer and Bacterial Cells” (International Journal of Molecular Sciences, 2021).
